Results on 3 molecules are retold here after patent US6884601B1, “Method to detect fertilization potential of sperm” (priority 1999, dated 2005).

For this experiment, the target named is T1, phospholipid hydroperoxide glutathione peroxidase (PHGPx) (Rattus norvegicus, UniProt P36970).
T1 construct: from tissue; host or cells: Wistar rat: cells from seminiferous tubules of the testis, epididymal spermatozoa, sperm mitochondrial capsule
T1 sequence (P36970 3-170 isoform P36970-2 limits assumed): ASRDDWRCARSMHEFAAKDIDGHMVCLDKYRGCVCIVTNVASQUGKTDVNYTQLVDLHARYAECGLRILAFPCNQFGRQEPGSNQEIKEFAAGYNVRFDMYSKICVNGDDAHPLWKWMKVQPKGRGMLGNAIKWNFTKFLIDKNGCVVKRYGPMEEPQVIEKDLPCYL
In words: PHGPx activity after solubilisation/reduction with thiols (phosphatidylcholine hydroperoxide substrate). The experiment is classed as biochemical. Conditions: for PHGPx activity: 6M guanidine-HCl, pH 7.5, 4° C., 10 min. How it is done: In fact, the specific activities thus obtained from mitochondrial capsules exceed, by a factor of 20, the highest values ever measured, i.e. in spermatogenic cells. Nevertheless, this extreme PHGPx activity is still low compared to its content in PHGPx protein.
Spermatozoa of four month old Wistar rats (about 300 grams of body weight) were collected by squeezing cauda epididymis and vas deferens in phosphate buffer saline (PBS) and by centrifugating at 600×g for 10 minutes. Cell and sperm pellets were layered on a discontinous 45%, 70% and 95% Percoll gradient and centrifugated at 300×g for 20 min. Spermatogenic cells stacked on top of the gradient, while spermatozoa separated into the 70% Percoll layer. Cells from seminiferous epithelium were prepared as follows (26): testes were deprived of albuginea, seminiferous tubules were cut into small pieces in PBS containing 0.250 mg/ml collagenase, and incubated twice 25° C. for 15 min. Cells then were filtered through a stainless steel screen (140 μm pore), washed in PBS and centrifugated at 300×g for 10 min. Sperm mitochondrial capsule was prepared according to Calvin et al. (1): sperms were resuspended in 0.05 M Tris-HCl pH 8.0 at the concentration of 10^6 cells/ml and treated with trypsin (0.2 mg/ml) for 10 minutes. After stopping the protease action with trypsin inhibitor (0.5 mg/ml) and SDS (10 mg/ml) sperms were centrifugated at 1,500×g for 10 minutes. Pellets were resuspended in 0.05 M Tris-HCl, pH 8.5 containing 1% sodium dodecyl sulphate (SDS), and 0.2 mM DTT and kept under continuous stirring for 30 minutes. Following centrifugation at 4,500×g for 15 min, the resulting supernatant was layered on a 1.6 M sucrose cushion. After centrifugation for 20 min at 18,000×g in a swinging rotor, sperm capsules were collected as a band at the top of the sucrose cushion, washed in Tris-HCl, pH 8.0 and spun at 140,000×g.
When applicable, PHGPx was also identified by activity measurement according to (28) using the specific substrate phosphatidylcholine hydroperoxide.

Where [1] appears, read: 0.1 M thiol in the presence of guanidine, measured after elimination of denaturating and reducing agents.

With `O[C@H](CS)[C@H](O)CS` (racemic) [dithiothreitol], the “Reactivation of latent PHGPx of sperm mitochondrial capsule / mature spermatozoa” value under setting [1] is recorded as “regenerate a significant PHGPx activity”.

As for `OCCS` [2-mercaptoethanol], under setting [1], the “Reactivation of latent PHGPx of sperm mitochondrial capsule / mature spermatozoa” value is reported as “regenerate a significant PHGPx activity”. Also, the PHGPx activity (Cells from seminiferous tubules, 5 mM 2-mercaptoethanol, mean and S.D. of five) is given as 250 ± 10 mU/mg protein; the PHGPx activity (Cells from seminiferous tubules, 100 mM 2-mercaptoethanol, mean and S.D. of five) was 260 ± 10 mU/mg protein; the PHGPx activity result (Mitochondrial capsule, 5 mM 2-mercaptoethanol) was “undetectable”; the PHGPx activity (Mitochondrial capsule, 100 mM 2-mercaptoethanol, mean and S.D. of five) is given as 5,600 ± 290 mU/mg protein; the PHGPx activity result (Spermatozoa from tail of epididymis, 5 mM 2-mercaptoethanol) is “undetectable”; the PHGPx activity (Spermatozoa from tail of epididymis, 100 mM 2-mercaptoethanol, mean and S.D. of five) was 3,140 ± 200 mU/mg protein.

Consider `N[C@@H](CCC(=O)N[C@@H](CS)C(=O)NCC(=O)O)C(=O)O` [glutathione], for which, under “glutathione in the low millimolar range, conventional test conditions”, the “Reactivation of latent PHGPx of sperm mitochondrial capsule / mature spermatozoa” value is “neither reactivated”.
